Key:
[1] = target: T1, Prostaglandin G/H synthase 2 (Homo sapiens, UniProt P35354); experiment: Inhibition of human recombinant COX-2 assessed as production of PGE2 using arachidonic acid as a substrate preincubated for 60 mins followed by substrate addition and measured after 2 mins by ELISA analysis
T1 sequence (P35354 whole entry): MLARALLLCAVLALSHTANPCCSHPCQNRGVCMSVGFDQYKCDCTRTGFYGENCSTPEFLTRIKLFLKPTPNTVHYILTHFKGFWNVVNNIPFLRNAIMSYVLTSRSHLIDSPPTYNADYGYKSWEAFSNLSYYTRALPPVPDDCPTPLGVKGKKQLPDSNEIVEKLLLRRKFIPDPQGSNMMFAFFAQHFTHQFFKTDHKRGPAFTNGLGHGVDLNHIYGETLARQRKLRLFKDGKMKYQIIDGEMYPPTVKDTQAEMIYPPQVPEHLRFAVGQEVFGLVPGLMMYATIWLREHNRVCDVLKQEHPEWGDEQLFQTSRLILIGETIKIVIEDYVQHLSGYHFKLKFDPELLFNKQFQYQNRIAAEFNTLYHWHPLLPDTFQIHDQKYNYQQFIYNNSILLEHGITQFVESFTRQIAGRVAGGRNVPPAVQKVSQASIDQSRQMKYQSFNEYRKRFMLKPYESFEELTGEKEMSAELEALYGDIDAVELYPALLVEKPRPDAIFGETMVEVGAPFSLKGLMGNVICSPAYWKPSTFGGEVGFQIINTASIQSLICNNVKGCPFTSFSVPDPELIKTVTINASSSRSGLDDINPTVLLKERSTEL

[2] = target: T2, Prostaglandin G/H synthase 1 (Ovis aries) (UniProt P05979); experiment: Inhibition of ovine COX-1 assessed as production of PGE2 using arachidonic acid as a substrate preincubated for 60 mins at 100 uM followed by substrate addition and measured after 2 mins by ELISA analysis relative to control; settings: time 62.0 min
T2 sequence (whole entry): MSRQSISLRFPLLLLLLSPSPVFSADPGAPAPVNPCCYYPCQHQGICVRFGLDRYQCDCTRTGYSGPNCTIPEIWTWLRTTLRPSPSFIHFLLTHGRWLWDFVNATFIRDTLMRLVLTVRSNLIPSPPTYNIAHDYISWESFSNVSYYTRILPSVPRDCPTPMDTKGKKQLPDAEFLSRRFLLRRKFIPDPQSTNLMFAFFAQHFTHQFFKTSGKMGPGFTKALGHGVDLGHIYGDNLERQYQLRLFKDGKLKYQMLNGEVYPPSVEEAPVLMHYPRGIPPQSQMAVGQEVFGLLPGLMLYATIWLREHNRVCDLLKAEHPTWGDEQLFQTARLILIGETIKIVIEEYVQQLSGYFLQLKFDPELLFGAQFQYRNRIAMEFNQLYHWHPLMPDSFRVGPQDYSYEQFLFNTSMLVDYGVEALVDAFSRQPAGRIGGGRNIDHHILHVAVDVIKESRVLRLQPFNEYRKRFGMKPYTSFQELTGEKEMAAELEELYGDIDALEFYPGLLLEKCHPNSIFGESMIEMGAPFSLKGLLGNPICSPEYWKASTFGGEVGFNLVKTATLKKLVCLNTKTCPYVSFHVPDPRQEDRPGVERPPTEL

[3] = target: T2, Prostaglandin G/H synthase 1 (Ovis aries); experiment: Inhibition of ovine COX-1 assessed as production of PGE2 using arachidonic acid as a substrate preincubated for 60 mins at 10 uM followed by substrate addition and measured after 2 mins by ELISA analysis relative to control
[4] = target: T2, Prostaglandin G/H synthase 1 (Ovis aries); experiment: Inhibition of ovine COX-1 assessed as production of PGE2 using arachidonic acid as a substrate preincubated for 60 mins at 1 uM followed by substrate addition and measured after 2 mins by ELISA analysis relative to control
[5] = target: T2, Prostaglandin G/H synthase 1 (Ovis aries); experiment: Inhibition of ovine COX-1 assessed as production of PGE2 using arachidonic acid as a substrate preincubated for 60 mins at 0.1 uM followed by substrate addition and measured after 2 mins by ELISA analysis relative to control
[6] = target: T3, Prostaglandin G/H synthase 1 (Ovis aries, UniProt P05979); experiment: Inhibition of ovine COX-1 assessed as production of PGE2 using arachidonic acid as a substrate preincubated for 60 mins followed by substrate addition and measured after 2 mins by ELISA analysis
T3 sequence (P05979 whole entry): T2 sequence (whole entry)

[7] = Selectivity index, ratio of IC50 for ovine COX-1 to IC50 for human COX-2
[8] = Solubility of the compound in water; assay type: physicochemical; settings: buffer
Mus musculus [9] = experiment: Antiinflammatory activity in mouse xylene induced ear edema model assessed as ear weight difference at 30 mg/kg, po once daily administered for 3 days prior to xylene stimulation and measured after 30 mins (reference value: 13.64 =/- 2.55 mg); assay type: functional; settings: time 3 day
Mus musculus [10] = experiment: Antiinflammatory activity in mouse xylene induced ear edema model assessed as inhibition of auricular edemas at 30 mg/kg, po once daily administered for 3 days prior to xylene stimulation and measured after 30 mins relative to control; assay type: functional; settings: 72 h, time 3 day
Mus musculus [11] = experiment: Analgesic activity in mouse model of acetic-acid induced writhing assessed as number of writhes at 30 mg/kg, po once daily administered for 3 days prior to acetic acid injection measured after 20 mins (reference value: 29.13+/-9.36); assay type: functional; settings: time 3 day
Mus musculus [12] = experiment: Analgesic activity in mouse model of acetic-acid induced writhing assessed as inhibition of writhing at 30 mg/kg, po once daily administered for 3 days prior to acetic acid injection measured after 20 mins relative to control; assay type: functional; settings: 72 h, time 3 day
RAW264.7 [13] = experiment: Inhibition of LPS induced NO production in mouse RAW264.7 cells at 0.01 uM in the presence of 500 ng/mL LPS measured after 24 hrs by Griess reagent based assay relative to control; assay type: functional
RAW264.7 [14] = experiment: Inhibition of LPS induced NO production in mouse RAW264.7 cells at 0.1 uM in the presence of 500 ng/mL LPS measured after 24 hrs by Griess reagent based assay relative to control; assay type: functional
RAW264.7 [15] = experiment: Inhibition of LPS induced NO production in mouse RAW264.7 cells at 1 uM in the presence of 500 ng/mL LPS measured after 24 hrs by Griess reagent based assay relative to control; assay type: functional
RAW264.7 [16] = experiment: Inhibition of LPS induced NO production in mouse RAW264.7 cells at 10 uM in the presence of 500 ng/mL LPS measured after 24 hrs by Griess reagent based assay relative to control; assay type: functional
RAW264.7 [17] = experiment: Inhibition of LPS induced NO production in mouse RAW264.7 cells at 100 uM in the presence of 500 ng/mL LPS measured after 24 hrs by Griess reagent based assay relative to control; assay type: functional
[18] = Acute oral toxicity in female kunming mouse assessed as signs of gross toxicity measured once daily for 14 days; settings: in vivo, time 14 day
RAW264.7 [19] = experiment: Cytotoxicity against mouse RAW 264.7 cells assessed as decreased cell viability at 0.01 to 10 uM measured after 18 hrs by MTT assay; assay type: cell-based; settings: raw264.7, 18 h, dose 0.01-10 µM
RAW264.7 [20] = experiment: Cytotoxicity against mouse RAW 264.7 cells assessed as decreased cell viability at 100 uM measured after 18 hrs by MTT assay; assay type: cell-based; settings: raw264.7, 18 h
[21] = Acute oral toxicity in female kunming mouse assessed as survival at 2000 mg/kg measured once daily for 14 days; assay type: organism-based; settings: in vivo, 336 h, time 14 day
[22] = Acute oral toxicity in female kunming mouse assessed as effect on liver histopathology at 2000 mg/kg measured once daily for 14 days; assay type: organism-based; settings: in vivo, 336 h, time 14 day
[23] = Acute oral toxicity in female kunming mouse assessed as effect on kidney histopathology at 2000 mg/kg measured once daily for 14 days; assay type: organism-based; settings: in vivo, 336 h, time 14 day

| Compound | IC50 [1] [nM] | inhibition [2] [%] | inhibition [3] [%] | inhibition [4] [%] | inhibition [5] [%] | IC50 [6] [nM] | Ratio [7] | solubility [8] | Activity (Mus musculus [9]) [mg] | inhibition in vivo at 30 mg/kg (Mus musculus [10]) [%] | Activity (Mus musculus [11]) | inhibition in vivo at 30 mg/kg (Mus musculus [12]) [%] | inhibition at 0.01 µM (RAW264.7 [13]) [%] | inhibition at 0.1 µM (RAW264.7 [14]) [%] | inhibition at 1 µM (RAW264.7 [15]) [%] | inhibition at 10 µM (RAW264.7 [16]) [%] | inhibition at 100 µM (RAW264.7 [17]) [%] | LD50 at 336 h [18] [mg/kg] | Activity (RAW264.7 [19]) | Activity (RAW264.7 [20]) [%] | also measured |
| --- | --- | --- | --- | --- | --- | --- | --- | --- | --- | --- | --- | --- | --- | --- | --- | --- | --- | --- | --- | --- | --- |
| Cc1ccc(-c2cc(C)n(S(=O)(=O)Oc3ccccc3)n2)cc1 | 1.1 | 70 | 72 | 55 | 34 | 500 | 455 | Insoluble | 11.57 | 15.2 | 14.38 | 50.7 | 10.5 | 18.1 | 19.3 | 21.1 | 31.6 | > 2000 | – | – | – |
| Cc1ccc(-c2cc(C)n(S(=O)(=O)Oc3ccc(I)cc3)n2)cc1 | 9.2 | 48 | 41 | 35 | 17 | 96600 | 10500 | Insoluble | 9.96 | 27 | 24.13 | 17.2 | – | – | – | – | – | – | Non-Toxic | 40 | Activity [21]: Non-Toxic; Activity [22]: Non-Toxic; Activity [23]: Non-Toxic |
| Cc1ccc(-c2cc(C)n(S(=O)(=O)Oc3ccccc3Cl)n2)cc1 | 530 | 33 | 26 | 24 | 20 | > 100000 | > 189 | Insoluble | 9.96 | 27 | 15 | 48.5 | 12.6 | 23.6 | 23.8 | 22 | 29.4 | > 2000 | 80% | 80 | Activity [21]: Non-Toxic; Activity [22]: Non-Toxic; Activity [23]: Non-Toxic |
| Cc1ccc(-c2cc(C(F)(F)F)nn2-c2ccc(S(N)(=O)=O)cc2)cc1 [CELECOXIB] | – | – | – | – | – | – | – | Insoluble | 9.79 | 28.2 | 18.63 | – | 16.5 | 19.6 | 16.5 | 14.8 | 50.2 | – | 80% | – | – |

Source: ChEMBL document CHEMBL4808246 (Bioorg Med Chem, 2021)
